Measured values: the NIST ThermoML archive (doi:10.1021/je401015e)

Details: Liquid; for mass density: Buoyancy - hydrostatic balance with magnetic suspension - one sinker

C=CCCCC [hex-1-ene]
Details	mass density [kg/m3]	viscosity [mPa·s]
298.15 K, 98 kPa	669.71	0.271
298.15 K, 24510 kPa	696.93	0.337
298.15 K, 49030 kPa	714.95	0.415
298.15 K, 98060 kPa	744.22	0.55
298.15 K, 147100 kPa	763.36	0.705
298.15 K, 196130 kPa	778.91	0.876
298.15 K, 245160 kPa	793.17	1.093
303.15 K, 98 kPa	664.87	0.256
303.15 K, 24510 kPa	690.93	0.321
303.15 K, 49030 kPa	711.55	0.395
303.15 K, 98060 kPa	741.4	0.525
303.15 K, 147100 kPa	761.37	0.67
303.15 K, 196130 kPa	776.19	0.84
303.15 K, 245160 kPa	791.19	1.034
312.92 K, 98 kPa	655.77	0.232
325.17 K, 98 kPa	644.12	0.21
325.99 K, 98060 kPa	729.28	0.442
326 K, 24510 kPa	675.1	0.274
326.02 K, 49030 kPa	694.93	0.328
326.05 K, 147100 kPa	750.05	0.561
326.12 K, 196130 kPa	767.98	0.694
326.15 K, 245160 kPa	783.2	0.836
364.25 K, 245160 kPa	767.68	0.628
364.63 K, 196130 kPa	751.74	0.54
364.69 K, 49030 kPa	670.17	0.254
364.73 K, 24510 kPa	645.55	0.214
364.75 K, 98060 kPa	706.69	0.346
364.83 K, 147100 kPa	731.74	0.437
398.25 K, 147100 kPa	715.97	0.363
398.35 K, 245160 kPa	753.74	0.516
398.37 K, 196130 kPa	736.05	0.444
398.43 K, 24510 kPa	618.11	0.17
398.78 K, 98060 kPa	687.13	0.287
398.87 K, 49030 kPa	645.8	0.211
422.37 K, 245160 kPa	743.17	0.456
422.71 K, 196130 kPa	726.21	0.389
422.74 K, 147100 kPa	703.54	0.319
422.9 K, 98060 kPa	672.81	0.252
423.1 K, 49030 kPa	630.04	0.184
423.18 K, 24510 kPa	598.39	0.146
452.77 K, 24510 kPa	575.45	0.124
453.14 K, 49030 kPa	608.12	0.16
453.14 K, 196130 kPa	712.63	0.338
453.19 K, 98060 kPa	656.91	0.218
453.28 K, 147100 kPa	687.84	0.277
453.52 K, 245160 kPa	732.58	0.397
471.55 K, 196130 kPa	704.21	0.315
471.64 K, 245160 kPa	725.42	0.371
471.73 K, 49030 kPa	598.79	0.15
471.78 K, 98060 kPa	646.27	0.204
471.92 K, 24510 kPa	560.56	0.115
472.02 K, 147100 kPa	680.82	0.26

C=CCCCCC [1-heptene]
Details	mass density [kg/m3]	viscosity [mPa·s]
298.15 K, 98 kPa	694.51	0.362
298.15 K, 24510 kPa	718.23	0.451
298.15 K, 49030 kPa	734.7	0.544
298.15 K, 98060 kPa	765.58	0.739
298.15 K, 147100 kPa	783.57	0.942
298.15 K, 196130 kPa	800.85	1.226
298.15 K, 245160 kPa	816.79	1.499
303.15 K, 98 kPa	689.57	0.346
303.15 K, 24510 kPa	715	0.431
303.15 K, 49030 kPa	733.1	0.52
303.15 K, 98060 kPa	761.82	0.706
303.15 K, 147100 kPa	780.46	0.903
303.15 K, 196130 kPa	797.46	1.162
303.15 K, 245160 kPa	815.3	1.429
312.83 K, 98 kPa	680.92	0.314
322.39 K, 98 kPa	672.17	0.288
327.47 K, 24510 kPa	697.97	0.351
327.48 K, 98060 kPa	746.71	0.575
327.49 K, 98 kPa	668.07	0.278
327.49 K, 49030 kPa	718.4	0.429
327.63 K, 147100 kPa	767.87	0.741
327.63 K, 196130 kPa	786.42	0.925
327.67 K, 245160 kPa	805.58	1.136
340.21 K, 98 kPa	655.95	0.251
354.73 K, 98 kPa	643.5	0.224
359.63 K, 245160 kPa	791.61	0.883
359.74 K, 147100 kPa	750.76	0.587
359.75 K, 196130 kPa	773.85	0.726
359.87 K, 98060 kPa	730.37	0.457
359.96 K, 49030 kPa	699.31	0.34
360.03 K, 98 kPa	638.93	0.215
360.06 K, 24510 kPa	672.86	0.278
392.4 K, 245160 kPa	776.73	0.709
392.46 K, 196130 kPa	758.9	0.591
392.61 K, 147100 kPa	734.09	0.48
392.68 K, 49030 kPa	676.29	0.277
392.74 K, 98060 kPa	714.89	0.377
392.79 K, 24510 kPa	646.48	0.226
423.82 K, 196130 kPa	745.35	0.489
424.04 K, 147100 kPa	717.45	0.4
424.07 K, 245160 kPa	760.78	0.574
424.11 K, 24510 kPa	619.97	0.182
424.17 K, 49030 kPa	653.79	0.226
424.17 K, 98060 kPa	697.03	0.311
452.22 K, 196130 kPa	733.49	0.434
452.25 K, 98060 kPa	676.86	0.28
452.27 K, 245160 kPa	750.38	0.503
452.28 K, 147100 kPa	702.95	0.355
452.34 K, 49030 kPa	628.89	0.198
452.35 K, 24510 kPa	595.84	0.16
473.28 K, 196130 kPa	723.12	0.407
473.33 K, 147100 kPa	692.3	0.333
473.35 K, 245160 kPa	737.15	0.47
473.47 K, 98060 kPa	665.45	0.262
473.56 K, 49030 kPa	612.5	0.183
473.7 K, 24510 kPa	578.48	0.148
